How the values were obtained:
[1] = biological target: T1, TBK1 (Homo sapiens, UniProt Q9UHD2); assay: TR-FRET enzymatic activity assay, TBK1; type: biochemical; also: full length recombinant TBK1 at 2.5 nM
T1 construct: TBK1 and IKKε were expressed and purified as full length recombinant proteins; made in house
T1 sequence (Q9UHD2 1-729): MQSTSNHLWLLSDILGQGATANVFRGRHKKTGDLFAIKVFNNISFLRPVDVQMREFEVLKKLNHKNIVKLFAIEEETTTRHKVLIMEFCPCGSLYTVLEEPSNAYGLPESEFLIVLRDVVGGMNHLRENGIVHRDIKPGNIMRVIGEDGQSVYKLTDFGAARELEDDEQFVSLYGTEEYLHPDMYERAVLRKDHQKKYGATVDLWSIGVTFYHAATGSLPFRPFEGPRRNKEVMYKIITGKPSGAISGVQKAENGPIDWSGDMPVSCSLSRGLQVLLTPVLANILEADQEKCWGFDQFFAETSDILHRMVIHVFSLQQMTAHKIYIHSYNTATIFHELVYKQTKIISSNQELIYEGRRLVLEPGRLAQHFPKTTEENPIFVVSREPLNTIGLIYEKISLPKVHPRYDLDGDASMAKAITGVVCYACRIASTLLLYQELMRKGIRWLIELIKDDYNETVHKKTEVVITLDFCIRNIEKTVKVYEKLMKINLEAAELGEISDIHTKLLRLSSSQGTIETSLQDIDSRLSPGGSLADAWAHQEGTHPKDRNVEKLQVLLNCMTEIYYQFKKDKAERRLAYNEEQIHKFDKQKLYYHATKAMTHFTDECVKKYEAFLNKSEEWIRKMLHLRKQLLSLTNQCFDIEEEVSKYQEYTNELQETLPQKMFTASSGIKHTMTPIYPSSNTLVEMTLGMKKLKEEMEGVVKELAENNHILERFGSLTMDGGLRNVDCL
Outline: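 TR-FRET detected phosphorylation of a biotinylated serine/threonine peptide using 125 nM streptavidin XL665 plus europium-labelled anti-phospho antibody. Reactions with full-length recombinant kinase ran 240 min at 25 °C before EDTA quench. Values are geometric-mean IC50s (n ≥ 4) from four-parameter dose-response fits against staurosporine and DMSO controls.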

[2] = biological target: T2, IKKε (Homo sapiens, UniProt Q14164); assay: TR-FRET enzymatic activity assay, IKKε; type: biochemical; conditions: read-out: IKKϵ IC50; also: full length recombinant IKKε at 0.3 nM
T2 construct: TBK1 and IKKε were expressed and purified as full length recombinant proteins; made in house
T2 sequence (Q14164 1-716): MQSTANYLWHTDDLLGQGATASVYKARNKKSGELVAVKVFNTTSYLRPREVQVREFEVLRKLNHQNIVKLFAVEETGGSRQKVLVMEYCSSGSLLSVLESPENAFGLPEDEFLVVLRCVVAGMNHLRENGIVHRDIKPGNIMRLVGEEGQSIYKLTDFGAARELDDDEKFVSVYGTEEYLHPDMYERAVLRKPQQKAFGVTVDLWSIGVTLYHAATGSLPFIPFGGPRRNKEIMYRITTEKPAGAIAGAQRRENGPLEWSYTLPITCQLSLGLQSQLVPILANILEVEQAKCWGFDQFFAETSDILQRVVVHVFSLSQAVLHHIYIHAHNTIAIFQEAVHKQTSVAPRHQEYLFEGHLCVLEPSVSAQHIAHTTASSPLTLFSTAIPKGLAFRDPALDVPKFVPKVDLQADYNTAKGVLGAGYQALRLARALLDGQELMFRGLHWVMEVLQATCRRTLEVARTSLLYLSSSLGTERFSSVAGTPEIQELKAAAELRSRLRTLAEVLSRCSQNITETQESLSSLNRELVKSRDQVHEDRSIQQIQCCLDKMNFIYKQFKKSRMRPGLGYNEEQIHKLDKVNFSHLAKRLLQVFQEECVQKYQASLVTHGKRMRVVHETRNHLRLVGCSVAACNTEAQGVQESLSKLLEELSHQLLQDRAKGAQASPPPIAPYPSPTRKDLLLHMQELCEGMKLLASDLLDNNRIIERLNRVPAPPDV
Outline: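 IC50 values are geometric means of at least four determinations, fitted to a four-parameter curve after normalising to 1 μM staurosporine and DMSO. Signal: Eu-cryptate anti-phospho antibody plus 125 nM streptavidin-XL665 on a biotinylated peptide. Full-length recombinant enzyme reacted 240 min, 25 °C, then EDTA-quenched.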

IC50 [1] [µM] | IC50 [2] [µM] | Compound
0.492 | > 1 | COc1cc(-c2ccnc(NC(=O)C3CC3)c2)cc(C#N)c1OC1CCOCC1 [Example 7, N-(4-(3-cyano-5-methoxy-4-((tetrahydro-2H-pyran-4-yl)oxy)phenyl)pyridin-2-yl)cyclopropanecarboxamide]
0.0661 | 0.16 | N#Cc1cc(-c2cc(NC(=O)C3CC3)ncn2)ccc1OC1CCN(C(=O)CO)CC1 [Example 23, N-(6-(3-cyano-4-((1-(2-hydroxyacetyl)piperidin-4-yl)oxy)phenyl)pyrimidin-4-yl)cyclopropanecarboxamide]
0.0756 | 0.2 | N#Cc1cc(-c2ccnc(NC(=O)[C@@H]3C[C@H]3c3ccncc3)c2)ccc1OC1CCOCC1 (relative stereo) [Example 151, Trans-N-(4-(3-cyano-4-((tetrahydro-2H-pyran-4-yl)oxy)phenyl)pyridin-2-yl)-2-(pyridin-4-yl)cyclopropane-1-carboxamide]
0.871 | 0.632 | N#Cc1cc(-c2ccnc(NC(=O)[C@H]3[C@@H]4COC[C@@H]43)c2)ccc1OC1CCOCC1 [Example 118, (1R,5S,6R)—N-(4-(3-cyano-4-((tetrahydro-2H-pyran-4-yl)oxy)phenyl)pyridin-2-yl)-3-oxabicyclo[3.1.0]hexane-6-carboxamide]
0.0157 | 0.0463 | N#Cc1cc(-c2ccnc(NC(=O)[C@H]3C[C@@H]3F)c2)ccc1O[C@H]1CCN(C(=O)CO)C[C@H]1F [Example 60, (1R,2S)—N-(4-(3-cyano-4-(((3R,4S)-3-fluoro-1-(2-hydroxyacetyl)piperidin-4-yl)oxy)phenyl)pyridin-2-yl)-2-fluorocyclopropanecarboxamide]
0.0056 | 0.0095 | Cn1cc([C@@H]2C[C@H]2C(=O)Nc2cc(-c3ccc(O[C@H]4CCN(C(=O)CO)C[C@H]4F)c(C#N)c3)ccn2)cn1 [Example 90, (1,2-trans)-N-(4-(3-cyano-4-(((3R,4S)-3-fluoro-1-(2-hydroxyacetyl)piperidin-4-yl)oxy)phenyl)pyridin-2-yl)-2-(1-methyl-1H-pyrazol-4-yl)cyclopropane-1-carboxamide]
0.0089 | 0.0261 | CC1CC1C(=O)Nc1cc(-c2ccc(O[C@H]3CCN(C(=O)CO)C[C@H]3F)c(C#N)c2)ccn1 (stereo partly drawn) [Example 70, N-(4-(3-Cyano-4-(((3R,4S)-3-fluoro-1-(2-hydroxyacetyl)piperidin-4-yl)oxy)phenyl)pyridin-2-yl)-2-methylcyclopropanecarboxamide]
0.0968 | > 1 | N#Cc1cc(-c2ccnc(NC(=O)[C@H]3C[C@@H]3C(F)F)c2)ccc1OC1CCOCC1 (relative stereo) [Example 101, (1,2-trans)-N-(4-(3-cyano-4-((tetrahydro-2H-pyran-4-yl)oxy)phenyl)pyridin-2-yl)-2-(difluoromethyl)cyclopropane-1-carboxamide]
0.268 | 0.512 | N#Cc1cc(-c2ccnc(NC(=O)C3CC34CC4)c2)ccc1OC1CCOCC1 (stereo not shown) [Example 48, N-(4-(3-cyano-4-((tetrahydro-2H-pyran-4-yl)oxy)phenyl)pyridin-2-yl)spiro[2.2]pentane-1-carboxamide]
0.529 | 0.314 | N#Cc1cc(-c2ccnc(NC(=O)[C@H]3C[C@@H]3[N+](=O)[O-])c2)ccc1OC1CCOCC1 (relative stereo) [Example 86, (1,2 trans)-N-(4-(3-cyano-4-((tetrahydro-2H-pyran-4-yl)oxy)phenyl)pyridin-2-yl)-2-nitrocyclopropane-1-carboxamide]
0.938 | > 1 | N#Cc1cc(-c2ccnc(NC(=O)[C@H]3C[C@@H]3c3cscn3)c2)ccc1OC1CCOCC1 (relative stereo) [Example 123, (1,2-Trans)-N-(4-(3-cyano-4-((tetrahydro-2H-pyran-4-yl)oxy)phenyl)pyridin-2-yl)-2-(thiazol-4-yl)cyclopropane-1-carboxamide]
0.0045 | 0.0024 | Cn1cc(C2C[C@H]2C(=O)Nc2cc(-c3ccc(O[C@H]4CCN(C(=O)CO)CC4(F)F)c(C#N)c3)ccn2)cn1 (stereo in doubt) [Example 89, (1,2-trans)-N-(4-(3-cyano-4-(((S)-3,3-difluoro-1-(2-hydroxyacetyl)piperidin-4-yl)oxy)phenyl)pyridin-2-yl)-2-(1-methyl-1H-pyrazol-4-yl)cyclopropane-1-carboxamide]
0.826 | > 1 | N#Cc1cc(-c2cc(NC(=O)C3CC3)ncn2)ccc1O [Example 109, N-(6-(3-cyano-4-hydroxyphenyl)pyrimidin-4-yl)cyclopropanecarboxamide]
0.0071 | 0.009 | N#Cc1cc(-c2cc(NC(=O)[C@@H]3C[C@H]3c3cccnc3)ncn2)ccc1O[C@H]1CCN(C(=O)[C@@H](O)CO)CC1(F)F [Example 144, (1,2-Trans)-N-(6-(3-cyano-4-(((S)-1-((S)-2,3-dihydroxypropanoyl)-3,3-difluoropiperidin-4-yl)oxy)phenyl)pyrimidin-4-yl)-2-(pyridin-3-yl)cyclopropane-1-carboxamide]
0.0523 | 0.353 | N#Cc1cc(-c2ccnc(NC(=O)C3CC3)c2)ccc1N1CC[C@H](O)C1 [Example 16, (S)—N-(4-(3-cyano-4-(3-hydroxypyrrolidin-1-yl)phenyl)pyridin-2-yl)cyclopropanecarboxamide]
0.0203 | 0.0613 | N#Cc1cc(-c2ccnc(NC(=O)C3CC3)c2)ccc1N1CC[C@H](F)C1 [Example 18, (S)—N-(4-(3-cyano-4-(3-fluoropyrrolidin-1-yl)phenyl)pyridin-2-yl)cyclopropanecarboxamide]
0.0064 | 0.0099 | N#Cc1cc(-c2ccnc(NC(=O)[C@@H]3C[C@H]3c3cccnc3)c2)ccc1O[C@H]1CCN(C(=O)[C@@H](O)CO)CC1(F)F [Example 133, (1,2-Trans)-N-(4-(3-cyano-4-(((S)-1-((S)-2,3-dihydroxypropanoyl)-3,3-difluoropiperidin-4-yl)oxy)phenyl)pyridin-2-yl)-2-(pyridin-3-yl)cyclopropane-1-carboxamide]
0.267 | 0.0803 | CN(C)C[C@@H]1C[C@H]1C(=O)Nc1cc(-c2ccc(OC3CCOCC3)c(C#N)c2)ccn1 (relative stereo) [Example 41, (1,2-trans)-N-(4-(3-cyano-4-((tetrahydro-2H-pyran-4-yl)oxy)phenyl)pyridin-2-yl)-2-((dimethylamino)methyl)cyclopropane-1-carboxamide]
0.0164 | 0.0322 | N#Cc1cc(-c2ccnc(NC(=O)[C@@H]3C[C@@H]3F)c2)ccc1O[C@H]1CCN(C(=O)CO)C[C@H]1F [Example 61, (1S,2S)—N-(4-(3-cyano-4-(((3R,4S)-3-fluoro-1-(2-hydroxyacetyl)piperidin-4-yl)oxy)phenyl)pyridin-2-yl)-2-fluorocyclopropanecarboxamide]
0.0294 | 0.269 | Cc1cc([C@@H]2C[C@H]2C(=O)Nc2cc(-c3ccc(OC4CCOCC4)c(C#N)c3)ccn2)on1 (relative stereo) [Example 47, (1,2-trans)-N-(4-(3-cyano-4-((tetrahydro-2H-pyran-4-yl)oxy)phenyl)pyridin-2-yl)-2-(3-methylisoxazol-5-yl)cyclopropane-1-carboxamide]
